Results published in patent publication US8703953B2, “Aryl ether-base kinase inhibitors” (Bristol-Myers Squibb Company, priority 2012, dated 2014).
pIC50: −log10 of the molar value.

Columns and labels:
AAK1 (full length human) = target: T1, AAK1 (full length human) (Homo sapiens, UniProt Q2M2I8); experiment: HEK281 Cell-Based Assay (HEK293F cells transfected with AAK1 and AP2M1; phospho-mu2 Western blot); conditions: 3 h
T1 construct: HA; expressed in transfected cells; host or cells: HEK293F
Method: HEK293F cells were cultured in media containing DMEM (Gibco, cat. #11965), 10% FBS (SAFC Biosciences, cat. #12103C), 1× GPS (glutamine, penicillin and streptomycin). On day one, cells were plated on a 10 cm dish so that they are ˜80% confluent at time of transfection. Roughly 12 million cells were in a 10 cm dish at time of transfection. On day two, each dish was transfected with 48 ug DNA and 144 μl Lipofectamine 2000 (Invitrogen, cat. #11668-019). The DNA was comprised of a mixture (per 10 cm dish) containing 3 ug AAK1/HA/pIRES (full length human, NCBI accession no. NP_055726.2), 45 μg Flag/AP2MI/pcDNA (full length human), and 1.5 ml OPTI-MEM. The Lipofectamine 2000 is made up of a mixture (per 10 cm dish) containing 144 μl Lipofectamine 2000 and 1.5 ml OPTI-MEM. Each mixture was transferred to individual 15 ml tubes and incubated at RT for 5 minutes, and then the two mixes were combined and incubated at RT for 20 minutes. Growth media was then aspirated from each 10 cm plate and replaced with 10 ml of DMEM+10% FBS (no GPS). Finally, 3 ml DNA/Lipofectamine mix was added to each 10 cm dish and mix gently followed by incubate of plate overnight at 37° C. and 5% CO2.
On day three, compounds were diluted in 100% DMSO at 1000× final concentration, followed by 3-fold serial dilutions for a total of 5 concentrations tested. Four compounds were tested per 10 cm dish. One ul of each compound dilution was then pipetted into a deep-well, 96-well plate, followed by addition of 500 μl DMEM+0.5% FBS into each well for a 2× final concentration of each compound. Cells were resuspended in a 10 cm dish by simple pipetting (HEK293 cells come off the plate that easy at this point) and then transferred to a 50 ml conical tube and pelleted by centrifugation at 1000 rpm for 5 min. Cell pellets were then resuspended in 2.75 ml DMEM+0.5% FBS per 10 cm dish and 100 μl of cell suspension transferred into each well of 96-well TC plate. Finally, 100 μl of 2× compound diluted in DMEM+0.5% FBS was then added into wells containing cell suspension for a 1× final concentration. Plates were then incubated at 37° C. and 5% CO2 for 3 hours followed by transferring of cell suspensions from each well into 12-tube PCR strips. The PCR strips were spun in a tip rack at 1000 rpm for 5 minutes to pellet cells and media was then removed by pipetting without disturbing the cell pellet.
To prepare for Western Blot analysis, cell pellets were resuspend in 40 ul 1× LDS-PAGE sample buffer (Invitrogen, cat. #NP0008)+2× Halt phophatase and protease inhibitor cocktail (Thermo Scientific, cat. #1861284), followed by sonicating each with microtip sonicator set at 5 for 8-10 seconds. Five ul of 10× NuPage Sample Reducing Agent (with […]) was to each sample followed by heat denaturing at 70C for 10 min on PCR machine. A total of 10 μl per sample was loaded into each lane of a 4-20% Tris-Glycine Criterion 26-well gel (Biorad, cat. #345-0034) for the phospho-mu2 blot and 10 μl per lane in a 4-12% Bis-Tris (+MES buffer) NuPAGE 26-well gel (Invitrogen, cat. #WG1403BX10) for the mu2 blot. For controls, 2 ng of phospho-mu2 or 20 ng mu2/Flag proteins were loaded in the last well of each gel. After SDS-PAGE, samples on each gel were transferred to PVDF membrane using an iBlot and membranes were blocked for one hour in TBST+5% milk, followed by wash 3× for 5-10 min with TBST. Criterion gels were probed with rabbit anti-phospho-mu2 (1:5000; a rabbit polyclonal antibody produced by New England Peptide and affinity purified at Lexicon) in TBST+5% BSA, whereas, NuPAGE gels were probed with mouse anti-Flag (1:500; Sigma, cat. #F1804) in TBST+5% milk, and these primary antibodies were incubated overnight at 4° C. on a rocker. […]

GST-Xa-hAAK1 = target: T2, GST-Xa-hAAK1 (Homo sapiens, UniProt Q2M2I8); experiment: AAK1 Kinase Assay (Caliper LabChip, fluoresceinated peptide substrate); format: biochemical; conditions: ATP 22 μM
T2 construct: made in house
T2 sequence (Q2M2I8 whole entry): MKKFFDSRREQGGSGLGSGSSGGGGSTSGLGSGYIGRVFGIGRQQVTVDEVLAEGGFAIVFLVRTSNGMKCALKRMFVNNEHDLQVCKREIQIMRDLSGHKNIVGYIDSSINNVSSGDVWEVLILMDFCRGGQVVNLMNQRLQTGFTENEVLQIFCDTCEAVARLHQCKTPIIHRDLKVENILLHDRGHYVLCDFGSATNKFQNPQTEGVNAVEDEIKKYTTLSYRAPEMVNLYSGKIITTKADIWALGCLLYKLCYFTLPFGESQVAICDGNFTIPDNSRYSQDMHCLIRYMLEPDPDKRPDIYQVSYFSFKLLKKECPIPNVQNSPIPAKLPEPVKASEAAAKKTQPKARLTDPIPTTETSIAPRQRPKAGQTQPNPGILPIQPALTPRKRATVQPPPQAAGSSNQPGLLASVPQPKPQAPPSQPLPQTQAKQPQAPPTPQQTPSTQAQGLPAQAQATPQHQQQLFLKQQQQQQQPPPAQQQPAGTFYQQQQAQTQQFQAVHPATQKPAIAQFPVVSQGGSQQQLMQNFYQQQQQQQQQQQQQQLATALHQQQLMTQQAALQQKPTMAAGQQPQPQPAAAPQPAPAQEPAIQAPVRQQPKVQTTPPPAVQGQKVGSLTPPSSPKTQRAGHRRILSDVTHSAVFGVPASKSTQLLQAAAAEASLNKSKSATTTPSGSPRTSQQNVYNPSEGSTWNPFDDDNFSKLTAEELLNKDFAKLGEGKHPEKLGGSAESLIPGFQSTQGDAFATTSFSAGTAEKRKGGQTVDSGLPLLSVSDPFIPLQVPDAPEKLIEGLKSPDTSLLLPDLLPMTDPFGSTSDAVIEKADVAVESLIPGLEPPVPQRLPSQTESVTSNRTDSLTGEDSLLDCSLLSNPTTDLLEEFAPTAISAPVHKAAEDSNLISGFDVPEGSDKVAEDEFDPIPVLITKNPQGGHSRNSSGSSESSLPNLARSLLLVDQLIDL
Method: The assays were performed in U-bottom 384-well plates. The final assay volume was 30 μl prepared from 15 μl additions of enzyme and substrates (fluoresceinated peptide (5-FAM)-Aha-[…]-NH2 and ATP) and test compounds in assay buffer (10 mM Tris-HCL pH 7.4, 10 mM MgCl2, 0.01% Tween-20 and 1.0 mM DTT). The reactions were initiated by the combination of bacterially expressed, GST-Xa-hAAK1 with substrates and test compounds. The reactions were incubated at room temperature for 3 hours and terminated by adding 60 μl of 35 mM EDTA buffer to each sample. The reactions were analyzed on the Caliper LabChip 3000 (Caliper, Hopkinton, Mass.) by electrophoretic separation of the fluorescent substrate and phosphorylated product. […] The final concentration of reagents in the assays are ATP, 22 μM; (5-FAM)-Aha-[…]-NH2, 1.5 μM; GST-Xa-hAAK1, 3.5 nM; and DMSO, 1.6%. Dose response curves were generated to determine the concentration required inhibiting 50% of kinase activity (IC50). Compounds were dissolved at 10 mM in dimethylsulfoxide (DMSO) and evaluated at eleven concentrations. IC50 values were derived by non-linear regression analysis.

T1 sequence (Q2M2I8 whole entry): as above

Row | pIC50 (AAK1 (full length human); listed as IC50 ranges) | pIC50 (GST-Xa-hAAK1; listed as IC50 ranges) | pIC50 (AAK1 (full length human); numeric values) | pIC50 (GST-Xa-hAAK1; numeric values) | SMILES
1 | > 9.00 | 8.00 to 9.00 | – | – | CC(C)C[C@H](N)COc1cc2c(cc1Br)-c1ccncc1C(C)O2 (mixture of isomers) [Example 21, (2S)-1-(9-bromo-5-methyl-5H-chromeno[3,4-c]pyridin-8-yloxy)-4-methylpentan-2-amine]
2 | 8.00 to 9.00 | 8.00 to 9.00 | – | – | CC(C)C[C@H](N)COc1cc2c(cc1Br)-c1ccncc1C(C(F)(F)F)O2 (mixture of isomers) [Example 28, (2S)-1-((9-bromo-5-(trifluoromethyl)-5H-chromeno[3,4-c]pyridin-8-yl)oxy)-4-methylpentan-2-amine]
3 | 8.00 to 9.00 | > 9.00 | – | – | CC(=O)Nc1cc2c(cn1)COc1c-2ccc(OC[C@@H](N)CC(C)C)c1C(F)F [Example 38, (S)-N-(8-(2-amino-4-methylpentyloxy)-7-(difluoromethyl)-5H-chromeno[3,4-c]pyridin-2-yl)acetamide]
4 | 8.00 to 9.00 | 8.00 to 9.00 | – | – | CC(C)C[C@H](N)COc1ccc2c(c1)OC(C)c1c-2ccnc1N (stereo partly drawn) [Example 15, 8-(((S)-2-amino-4-methylpentyl)oxy)-5-methyl-5H-chromeno[3,4-c]pyridin-4-amine]
5 | 7.00 to 8.00 | 7.00 to 8.00 | – | – | CCC1Oc2cc(OC[C@@H](N)CC(C)C)ccc2-c2ccncc21 (mixture of isomers) [Example 10, (2S)-1-(5-ethyl-5H-chromeno[3,4-c]pyridin-8-yloxy)-4-methylpentan-2-amine]
6 | 8.00 to 9.00 | 8.00 to 9.00 | – | – | CC(C)C[C@H](N)COc1ccc2c(c1)OCc1cncc(F)c1-2 [Example 16, (S)-1-((1-fluoro-5H-chromeno[3,4-c]pyridin-8-yl)oxy)-4-methylpentan-2-amine]
7 | – | – | 8.68 | 9.52 | CC(=O)Nc1cc2c(cn1)COc1c-2ccc(OC[C@@H](N)CC(C)C)c1F [Example 41, (S)-N-(8-((2-amino-4-methylpentyl)oxy)-7-fluoro-5H-chromeno[3,4-c]pyridin-2-yl)acetamide]
8 | – | – | < 6.52 | 7.09 | CC(C)C[C@@H](N)COc1ccc2c(c1)OC(C)c1cnccc1-2 (single isomer, unassigned) [Example 7a]
9 | > 9.00 | 8.00 to 9.00 | – | – | CC(C)C[C@H](N)COc1cc2c(cc1C#N)-c1ccncc1C(C)O2 (mixture of isomers) [Example 22, 8-((S)-2-amino-4-methylpentyloxy)-5-methyl-5H-chromeno[3,4-c]pyridine-9-carbonitrile]
10 | 8.00 to 9.00 | 8.00 to 9.00 | – | – | CC(C)C[C@H](N)COc1cc2c(cc1Br)-c1ccncc1CO2 [Example 14, (S)-1-(9-bromo-5H-chromeno[3,4-c]pyridin-8-yloxy)-4-methylpentan-2-amine]
11 | > 9.00 | > 9.00 | – | – | CC(=O)Nc1cc2c(cn1)COc1c-2ccc(OC[C@@H](N)CC(C)C)c1C [Example 35, (S)-N-(8-((2-amino-4-methylpentyl)oxy)-7-methyl-5H-chromeno[3,4-c]pyridin-2-yl)acetamide]
12 | 7.00 to 8.00 | 7.00 to 8.00 | – | – | NC(CCC(F)(F)F)COc1ccc2c(c1)OCc1cnccc1-2 (racemic) [Example 17, 1-(5H-chromeno[3,4-c]pyridin-8-yloxy)-5,5,5-trifluoropentan-2-amine]
13 | 7.00 to 8.00 | 7.00 to 8.00 | – | – | CC1Oc2cc(OC[C@@H](N)CC3CCCC3)ccc2-c2ccncc21 (mixture of isomers) [Example 24, (2S)-1-cyclopentyl-3-(5-methyl-5H-chromeno[3,4-c]pyridin-8-yloxy)propan-2-amine]
14 | 8.00 to 9.00 | 8.00 to 9.00 | – | – | COC(=O)Nc1cc2c(cn1)COc1cc(OC[C@@H](N)CC(C)C)ccc1-2 [Example 43, (S)-methyl 8-(2-amino-4-methylpentyloxy)-5H-chromeno[3,4-c]pyridin-2-ylcarbamate]
15 | 8.00 to 9.00 | 7.00 to 8.00 | – | – | CC(=O)Nc1cc2c(cn1)COc1cc(OCC(N)CCC(F)(F)F)ccc1-2 (racemic) [Example 36, N-(8-((2-amino-5,5,5-trifluoropentyl)oxy)-5H-chromeno[3,4-c]pyridin-2-yl)acetamide]
16 | – | – | 8.37 | 8.04 | CC(C)C[C@H](N)COc1ccc2c(c1)OC(C)c1cnccc1-2 (single isomer, unassigned) [Example 6b]
17 | – | – | < 7.00 | 7.18 | CC(=O)Nc1cc2c(cn1)COc1cc(OC[C@@H](N)CC(C)C)c(Cl)cc1-2 [Example 32, (S)-N-(8-((2-amino-4-methylpentyl)oxy)-9-chloro-5H-chromeno[3,4-c]pyridin-2-yl)acetamide]
18 | 7.00 to 8.00 | 7.00 to 8.00 | – | – | CC(C)C[C@H](N)COc1ccc2c(c1)OC(C1CC1)c1cnccc1-2 (single isomer, unassigned) [Example 8b]
19 | 7.00 to 8.00 | 8.00 to 9.00 | – | – | CC(=O)Nc1cc2c(cn1)COc1cc(OCC(C)(N)CC(C)C)ccc1-2 (racemic) [Example 44, N-(8-(2-amino-2,4-dimethylpentyloxy)-5H-chromeno[3,4-c]pyridin-2-yl)acetamide]
20 | – | 6.00 to 7.00 | < 6.52 | – | CC(C)C[C@@H](N)COc1ccc2c(c1)OC(C1CC1)c1cnccc1-2 (single isomer, unassigned) [Example 9a]
21 | 8.00 to 9.00 | 8.00 to 9.00 | – | – | CC(C)C[C@H](N)COc1ccc2c(c1)OCc1c-2ccnc1N [Example 13, (S)-8-((2-amino-4-methylpentyl)oxy)-5H-chromeno[3,4-c]pyridin-4-amine]
22 | 7.00 to 8.00 | 7.00 to 8.00 | – | – | CC(C)C[C@H](N)COc1ccc2c(c1)OCc1cnc(N)cc1-2 [Example 33, (S)-8-(2-amino-4-methylpentyloxy)-5H-chromeno[3,4-c]pyridin-2-amine]
23 | 7.00 to 8.00 | 8.00 to 9.00 | – | – | CC(=O)Nc1cc2c(cn1)COc1cc(OC[C@@H](N)CC(C)C)ccc1-2 [Example 18, (S)-N-(8-(2-amino-4-methylpentyloxy)-5H-chromeno[3,4-c]pyridin-2-yl)acetamide]
